US11013687B1, “Preventive and therapeutic treatment for COVID 19 and any other disease caused by SARS CoV 2” (priority 2020, dated 2021)

Tests used:
SARS-CoV-2 = format: cell-based
[1] = used in much larger amounts as food additive and sweetener than for nasal delivery; cited from earlier work
[2] = cited from earlier work

Row | Compound | capable of inhibiting SARS CoV 2 in vitro (in words) (SARS-CoV-2; xylitol alone) | safety for humans [1] | Log reduction of TCID50/mL after 48 hs. (mean of three replicates) (SARS-CoV-2; 6 μg/mL iota carrageenan, Vero E6, treated pre- and post-infection, 48 h, vs virus only, LOD in next column = titre at limit of detection) | concentration capable of inhibiting SARS CoV 2 in vitro (SARS-CoV-2; concentration of iota Carrageenan, alone or in combination with xylitol) | time iota Carrageenan stays in the nasal mucosa ([2]; clinical trials with a formulation containing xylometazoline and iota Carrageenan) | residence time ([2]; nasal, estimation basis for dosing each 4 hours)
1 | OC[C@@H](O)[C@H](O)[C@@H](O)CO [xylitol, Xylitol] | capable of inhibiting SARS CoV 2 in vitro | safe for humans |  |  |  | 
2 | iota Carrageenan |  | safe for humans | significantly reducing viral titers | not less than 6 μg/mL | about 4 hrs | approximately 4 hour
